Experimental data taken from US8975264B2, “Compound acting as a cannabinoid receptor-1 inhibitor” (Amorepacific Corporation, priority 2010, dated 2015).

Each compound was assayed against human CB1 (cannabinoid receptor 1) (Homo sapiens, UniProt P21554) (assay: CB1 receptor inhibition effect: calcium ion influx assay (Fluo-4 NW) in Chem-1 cells after 1 μM R-(+)-WIN55212-2). Conditions: calcium ion influx in Chem-1 cells expressing human CB1, 1 μM R-(+)-WIN55212-2.
Assay type: cell-based
Method: When cells in which the cannabinoid receptor 1 (CB1) is stably expressed are treated with a CB1 receptor agonist, the CB1 receptor is activated and influx of calcium ions into the cells increases. CB1 receptor inhibition effect of a test compound can be evaluated by measuring the degree of calcium influx inhibition after treating with the test compound.
First, Chem-1 cells (Chemicon International, #HTS019C) in which human CB1 cDNA is expressed stably were seeded onto a 96-well cell culture plate at a density of ˜50,000 cells/well and incubated overnight in a 5% CO2 incubator at 37° C. The next day, the culture medium was discarded and the cells were cautiously washed once using an assay buffer (HBSS containing 20 mM HEPES and 2.5 mM probenecid) with 200 μL/well. Calcium ion influx was measured using an assay kit (Fluo-4 NW calcium assay kit: Molecular Probes™, #F36206) according to the manufacturer's instructions. The compounds of Examples of desired concentration to be measured were comprised to 0.5% DMSO. For control, only 0.5% DMSO was used without the compounds of Examples. Reaction time was 10 minutes. After treating the Chem-1 cells stably expressing the CB1 receptor with 1 μM R-(+)-WIN55212-2 (Sigma, #W102), a CB1 receptor agonist, calcium ion (Ca^2+) flux induced thereby was measured for 80 seconds using Flex Station 3 (Molecular Device, USA).
The difference in calcium ion concentration of the cells treated with the compounds of Examples or those treated with 1 μM R-(+)-WIN55212-2 was obtained from the difference of the maximum and minimum values during the 80 seconds. Then, % inhibition of the compounds for the CB1 receptor was calculated using the following equation. % inhibition={1−(ΔRFUcompound−ΔRFUBlank)/(ΔRFUControl−ΔRFUBlank)}×100 [Equation]
ΔRFU: maximum relative fluorescence units−minimum relative fluorescence units
ΔRFUCompound: difference in maximum and minimum RFUs in the well where the compounds of Examples dissolved in DMSO to a final concentration of 0.5% and 1 μM R-(+)-WIN55212-2 dissolved in DMSO to a final concentration of 0.5% were added
ΔRFUBlank: difference in maximum and minimum RFUs in the well to which only 1% DMSO was added
ΔRFUControl: difference in maximum and minimum RFUs in the well where 0.5% DMSO and 1 μM R-(+)-WIN55212-2 dissolved in DMSO to a final concentration of 0.5% were added

Sequence of human CB1 (cannabinoid receptor 1) (P21554 whole entry): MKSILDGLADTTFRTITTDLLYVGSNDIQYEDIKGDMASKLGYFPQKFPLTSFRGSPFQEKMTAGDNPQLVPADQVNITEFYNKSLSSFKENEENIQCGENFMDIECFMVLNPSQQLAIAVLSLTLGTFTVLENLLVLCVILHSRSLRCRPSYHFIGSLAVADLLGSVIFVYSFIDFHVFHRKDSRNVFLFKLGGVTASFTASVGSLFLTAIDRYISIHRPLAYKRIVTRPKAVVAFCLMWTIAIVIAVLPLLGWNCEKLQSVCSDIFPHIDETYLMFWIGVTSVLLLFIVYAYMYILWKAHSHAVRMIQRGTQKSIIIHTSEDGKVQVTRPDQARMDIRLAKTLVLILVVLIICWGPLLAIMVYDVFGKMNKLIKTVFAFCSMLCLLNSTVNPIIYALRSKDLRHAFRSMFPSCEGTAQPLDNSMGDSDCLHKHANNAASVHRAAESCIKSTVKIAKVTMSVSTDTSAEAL

SMILES	IC50 [nM]
COc1ccc(-c2c(C)nn3c(-c4ccc(C)cc4)cc(N4CCC[C@H]4CO)nc23)cc1 [Example 42]	350
Cc1ccc(-c2cnn3c(-c4ccc(F)c(F)c4)cc(N4CCC[C@H]4CO)nc23)cc1 [Example 272]	690
CCOCc1nn2c(-c3cccc(C(F)(F)F)c3)cc(N(C)CCO)nc2c1-c1ccc(Cl)cc1 [Example 244]	7
CSc1ccc(-c2c(C)nn3c(-c4cccc(C)c4)cc(N4CCC[C@H]4CO)nc23)cc1 [Example 162]	110
Cc1nn2c(-c3cccc(C(F)(F)F)c3)cc(N3CCC[C@H]3CO)nc2c1-c1ccc(F)cc1F [Example 135]	120
COc1ccc(-c2c(C)nn3c(-c4ccccc4F)cc(N4CCC[C@H]4CO)nc23)cc1 [Example 39]	250
Cc1ccc(-c2c(C)nn3c(-c4ccc(F)c(F)c4)cc(N4CCC[C@H]4CO)nc23)cc1F [Example 184]	150
Cc1nn2c(-c3cccc(Cl)c3)cc(N3CCC[C@H]3CO)nc2c1-c1ccc(C(F)(F)F)cc1 [Example 173]	250
COc1cccc(-c2cc(N3CCC[C@H]3CO)nc3c(-c4ccc(OC)c(F)c4)c(C)nn23)c1 [Example 186]	220
Cc1ccc(-c2c(C)nn3c(-c4ccccc4)cc(N4CCC[C@H]4CO)nc23)cc1 [Example 28]	120
Cc1ccc(-c2c(C)nn3c(-c4ccc(F)c(F)c4)cc(N4CCC[C@H]4CO)nc23)cc1 [Example 26, (S)-(1-(3-(4-methylphenyl)-7-(3,4-difluorophenyl)-2-methylpyrazolo[1,5-a]pyrimidin-5-yl)pyrrolidin-2-yl)methanol]	53
CCCOc1ccc(-c2c(C)nn3c(-c4ccc(F)cc4)cc(N4CCC[C@H]4CO)nc23)cc1 [Example 74]	160
COc1ccc(-c2c(C)nn3c(-c4cccc(F)c4)cc(N4CCC[C@H]4CO)nc23)cc1 [Example 111]	60
Cc1nn2c(-c3ccc(F)cc3)cc(N3CCC[C@H]3CO)nc2c1-c1ccc(C(F)F)cc1 [Example 67]	94
CCOCc1nn2c(-c3cccc(C(F)(F)F)c3)cc(N3CCC[C@H]3CO)nc2c1-c1ccc(C)cc1 [Example 204]	6
CCOCc1nn2c(-c3cccc(OC)c3)cc(NCCO)nc2c1-c1ccc2c(c1)OCO2 [Example 268]	300
CCc1cccc(-c2cc(N3CCC[C@H]3CO)nc3c(-c4ccc(OC)cc4)c(C)nn23)c1 [Example 43]	210
Cc1nn2c(-c3cccc(C(F)(F)F)c3)cc(N3CCC[C@H]3CO)nc2c1-c1ccc(C(F)F)cc1 [Example 126]	69
CCCOc1ccc(-c2c(C)nn3c(-c4cccc(C(F)(F)F)c4)cc(N4CCC[C@H]4CO)nc23)cc1 [Example 133]	280
CCc1ccc(-c2c(C)nn3c(-c4ccc(F)cc4)cc(N4CCC[C@H]4CO)nc23)cc1 [Example 70]	230

SMILES	IC50 [nM]
COCc1nn2c(-c3ccc(F)cc3)cc(N3CCC[C@H]3CO)nc2c1-c1ccc(OC)cc1 [Example 222]	8
C=Cc1ccc(-c2c(C)nn3c(-c4cccc(C)c4)cc(N4CCC[C@H]4CO)nc23)cc1 [Example 165]	330
Cc1ccc(-c2cc(N3CCC[C@H]3CO)nc3c(-c4ccc(C(F)(F)F)cc4)c(C)nn23)cc1 [Example 180]	410
Cc1ccc(-c2cnn3c(-c4cccc(F)c4)cc(N4CCC[C@H]4CO)nc23)cc1 [Example 270]	440
Cc1ccc(-c2c(C)nn3c(-c4cccc(F)c4)cc(N4CCC[C@H]4CO)nc23)cc1 [Example 110, (S)-(1-(3-(4-methylphenyl)-7-(3-fluorophenyl)-2-methylpyrazolo[1,5-a]pyrimidin-5-yl)pyrrolidin-2-yl)methanol]	80
CCOCc1nn2c(-c3cccc(Cl)c3)cc(N(C)CCO)nc2c1-c1ccc(OC)cc1 [Example 248]	600
CCOCc1nn2c(-c3cccc(OC)c3)cc(N(C)CCO)nc2c1-c1ccc2c(c1)OCO2 [Example 252]	100
CCOc1ccc(-c2c(C)nn3c(-c4ccc(C)cc4)cc(N4CCC[C@H]4CO)nc23)cc1 [Example 53]	390
Cc1ccc(-c2c(C)nn3c(-c4ccc(F)c(Cl)c4)cc(N4CCC[C@H]4CO)nc23)cc1F [Example 185]	210
CCOCc1nn2c(-c3ccc(F)cc3)cc(N3CCC[C@H]3CO)nc2c1-c1ccc(Cl)cc1 [Example 206]	8
CCc1nn2c(-c3cccc(F)c3)cc(N3CCC[C@H]3CO)nc2c1-c1ccc(C)cc1 [Example 200]	110
CCOCc1nn2c(-c3cccc(C(F)(F)F)c3)cc(N(C)CCO)nc2c1-c1ccc2c(c1)OCO2 [Example 253]	190
CCc1ccc(-c2c(C)nn3c(-c4cccc(F)c4)cc(N4CCC[C@H]4CO)nc23)cc1 [Example 116]	160
Cc1nn2c(-c3ccccc3)cc(N3CCC[C@H]3CO)nc2c1-c1ccc2c(c1)OCO2 [Example 56, (S)-(1-(3-(3,4-methylenedioxyphenyl)-7-(phenyl)-2-methylpyrazolo[1,5-a]pyrimidin-5-yl)pyrrolidin-2-yl)methanol]	90
Cc1ccc(-c2c(C)nn3c(-c4ccccc4F)cc(N4CCC[C@H]4CO)nc23)cc1 [Example 33]	82
CCOCc1nn2c(-c3cccc(C)c3)cc(N3CCC[C@H]3CO)nc2c1-c1ccc(OC)cc1 [Example 220]	30
CCc1cccc(-c2cc(N3CCC[C@H]3CO)nc3c(-c4ccc(Cl)cc4)c(C)nn23)c1 [Example 14]	90
Cc1nn2c(-c3cccc(C(F)(F)F)c3)cc(N3CCC[C@H]3CO)nc2c1-c1ccc2c(c1)OCO2 [Example 125]	90
OC[C@@H]1CCCN1c1cc(-c2cccc(F)c2)n2nc(C3CC3)c(-c3ccc(Cl)cc3)c2n1 [Example 197]	150
COCc1nn2c(-c3cccc(C)c3)cc(N(C)CCO)nc2c1-c1ccc(Cl)cc1 [Example 262]	18

SMILES	IC50 [nM]
Cc1nn2c(-c3cccc(C(F)(F)F)c3)cc(N3CCC[C@H]3CO)nc2c1-c1ccc(F)c(F)c1 [Example 134]	190
Cc1nn2c(-c3ccc(F)c(F)c3)cc(N3CCC[C@H]3CO)nc2c1-c1ccc(Cl)cc1 [Example 21]	51
Cc1ccc(-c2cnn3c(-c4cc(F)cc(F)c4)cc(N4CCC[C@H]4CO)nc23)cc1 [Example 273]	230
Cc1ccc(-c2cc(N3CCC[C@H]3CO)nc3c(-c4ccc(Cl)cc4)c(C)nn23)cc1 [Example 11]	270
Cc1cccc(-c2cc(N3CCC[C@H]3CO)nc3c(-c4ccc(C(F)F)cc4)c(C)nn23)c1 [Example 160]	110
COc1ccc(-c2cc(N3CCC[C@H]3CO)nc3c(-c4ccc(C)cc4)c(C)nn23)cc1 [Example 27]	240
Cc1nn2c(-c3ccc(F)cc3)cc(N3CCC[C@H]3CO)nc2c1-c1ccccc1 [Example 83]	220
CCOc1ccc(-c2c(C)nn3c(-c4ccc(F)cc4)cc(N4CCC[C@H]4CO)nc23)cc1F [Example 81]	300
Cc1ccc(-c2c(C)nn3c(-c4ccc(F)cc4F)cc(N4CCC[C@H]4CO)nc23)cc1 [Example 34]	220
COCc1nn2c(-c3cccc(F)c3)cc(N3CCC[C@H]3CO)nc2c1-c1ccc(OC)cc1 [Example 223]	5
CCOc1ccc(-c2c(C)nn3c(-c4cccc(C(F)(F)F)c4)cc(N4CCC[C@H]4CO)nc23)cc1 [Example 124]	70
C=Cc1ccc(-c2c(C)nn3c(-c4cccc(F)c4)cc(N4CCC[C@H]4CO)nc23)cc1 [Example 117]	240
CCOCc1nn2c(-c3ccc(F)cc3)cc(NCCO)nc2c1-c1ccc(C)cc1 [Example 263, 2-[2-ethoxymethyl-7-(4-fluorophenyl)-3-(4-methylphenyl)-pyrazolo[1,5-a]pyrimidin-5-yl-amino]ethanol]	90
CCOCc1nn2c(-c3cccc(Cl)c3)cc(N(C)CCO)nc2c1-c1ccc2c(c1)OCO2 [Example 254]	130
Cc1nn2c(-c3ccccc3F)cc(N3CCC[C@H]3CO)nc2c1-c1ccc2c(c1)OCO2 [Example 57]	240
CCOc1ccc(-c2c(C)nn3c(-c4ccc(F)cc4)cc(N4CCC[C@H]4CO)nc23)cc1 [Example 65]	100
Cc1nn2c(-c3cccc(Cl)c3)cc(N3CCC[C@H]3CO)nc2c1-c1ccc(Cl)cc1 [Example 2, (S)-(1-(3-(4-chlorophenyl)-7-(3-chlorophenyl)-2-methylpyrazolo[1,5-a]pyrimidin-5-yl)pyrrolidin-2-yl)methanol]	100
COc1ccc(-c2c(C)nn3c(-c4ccc(F)c(Cl)c4)cc(N4CCC[C@H]4CO)nc23)cc1 [Example 46]	190
